Measurements: ChEMBL document CHEMBL1201862, “PubChem BioAssay data set” (2004)
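Growth conditions: 96-well plates. Treatment: test compound, 48 hours, 5 concentrations. Analysis: linear interpolation between bracketing concentrations; unreached endpoints set to highest concentration. Abbreviation: GI50, concentration required for 50% inhibition of growth.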 Activity calls are given as the source filed them. Rule as the data show it: active = GI50 up to about 1.1 µM and inactive = higher.

Tests used:
Experiment in all cases: NCI tumour cell line growth inhibition, 48 h
HCC 2998 = tested on: HCC 2998
HCT-116 = tested on: HCT-116
SK-OV-3 = tested on: SK-OV-3
A498 = tested on: A498
SK-MEL-5 = tested on: SK-MEL-5
MDA-MB-435 = tested on: MDA-MB-435
T47D = tested on: T47D
SF-539 = tested on: SF-539
HOP-92 = tested on: HOP-92
PC-3 = tested on: PC-3
NCI-H226 = tested on: NCI-H226
M14 = tested on: M14
Malme-3M = tested on: Malme-3M
KM12 = tested on: KM12
K562 = tested on: K562
NCI/ADR-RES = tested on: NCI/ADR-RES
MCF7 = tested on: MCF7
HT-29 = tested on: HT-29
SNB-19 = tested on: SNB-19
SN12C = tested on: SN12C
A549 = tested on: A549
OVCAR-8 = tested on: OVCAR-8
UACC-257 = tested on: UACC-257
NCI-H460 = tested on: NCI-H460
HOP-62 = tested on: HOP-62
SW-620 = tested on: SW-620
LOX IMVI = tested on: LOX IMVI
EKVX = tested on: EKVX
UACC-62 = tested on: UACC-62
U-251 = tested on: U-251
DU-145 = tested on: DU-145
COLO 205 = tested on: COLO 205
SK-MEL-28 = tested on: SK-MEL-28
OVCAR-3 = tested on: OVCAR-3
NCI-H522 = tested on: NCI-H522
SF-295 = tested on: SF-295
CCRF-CEM = tested on: CCRF-CEM
OVCAR-4 = tested on: OVCAR-4
UO-31 = tested on: UO-31
MDA-N = tested on: MDA-N
RXF 393 = tested on: RXF 393
TK-10 = tested on: TK-10
MDA-MB-231 = tested on: MDA-MB-231
OVCAR-5 = tested on: OVCAR-5
SNB-75 = tested on: SNB-75
786-0 = tested on: 786-0
BT-549 = tested on: BT-549
HCT-15 = tested on: HCT-15
NCI-H23 = tested on: NCI-H23
SF-268 = tested on: SF-268
SR = tested on: SR
CAKI-1 = tested on: CAKI-1
SK-MEL-2 = tested on: SK-MEL-2
MOLT-4 = tested on: MOLT-4
IGROV-1 = tested on: IGROV-1
ACHN = tested on: ACHN
RPMI-8226 = tested on: RPMI-8226

C=C(C)CCC(O)[C@](C)(O)[C@H]1[C@H](O)C[C@@]2(C)[C@@H]3CCc4c(cc(OC5OC(CO)C(O)C(O)C5O)c(O)c4C)C3(C)C(=O)C[C@]12C (some centres undefined)
GI50 (HCC 2998): > 100 µM (inactive) | GI50 (HCT-116): > 100 µM (inactive) | GI50 (SK-OV-3): > 100 µM (inactive) | GI50 (A498): > 100 µM (inactive) | GI50 (SK-MEL-5): > 10 µM (inactive) | GI50 (MDA-MB-435): > 100 µM (inactive) | GI50 (T47D): > 100 µM (inactive) | GI50 (SF-539): > 100 µM (inactive) | GI50 (HOP-92): > 100 µM (inactive) | GI50 (PC-3): > 100 µM (inactive) | GI50 (NCI-H226): > 100 µM (inactive) | GI50 (M14): > 100 µM (inactive) | GI50 (Malme-3M): > 100 µM (inactive) | GI50 (KM12): > 100 µM (inactive) | GI50 (K562): > 100 µM (inactive) | GI50 (NCI/ADR-RES): > 100 µM (inactive) | GI50 (MCF7): > 100 µM (inactive) | GI50 (HT-29): > 100 µM (inactive) | GI50 (SNB-19): > 100 µM (inactive) | GI50 (SN12C): > 100 µM (inactive) | GI50 (A549): > 100 µM (inactive) | GI50 (OVCAR-8): > 100 µM (inactive) | GI50 (UACC-257): > 100 µM (inactive) | GI50 (NCI-H460): > 100 µM (inactive) | GI50 (HOP-62): > 100 µM (inactive) | GI50 (SW-620): > 100 µM (inactive) | GI50 (LOX IMVI): > 100 µM (inactive) | GI50 (EKVX): > 100 µM (inactive) | GI50 (UACC-62): > 100 µM (inactive) | GI50 (U-251): > 100 µM (inactive) | GI50 (DU-145): > 100 µM (inactive) | GI50 (COLO 205): > 100 µM (inactive) | GI50 (SK-MEL-28): > 100 µM (inactive) | GI50 (OVCAR-3): > 100 µM (inactive) | GI50 (NCI-H522): > 100 µM (inactive) | GI50 (SF-295): > 100 µM (inactive) | GI50 (CCRF-CEM): > 100 µM (inactive) | GI50 (OVCAR-4): > 100 µM (inactive) | GI50 (UO-31): > 100 µM (inactive) | GI50 (MDA-N): > 100 µM (inactive) | GI50 (RXF 393): > 100 µM (inactive) | GI50 (TK-10): > 100 µM (inactive) | GI50 (MDA-MB-231): > 100 µM (inactive) | GI50 (OVCAR-5): > 100 µM (inactive) | GI50 (SNB-75): > 100 µM (inactive) | GI50 (786-0): > 100 µM (inactive) | GI50 (BT-549): > 100 µM (inactive) | GI50 (HCT-15): > 100 µM | GI50 (NCI-H23): > 100 µM (inactive) | GI50 (SF-268): > 100 µM (inactive) | GI50 (SR): > 100 µM (inactive) | GI50 (CAKI-1): > 100 µM (inactive) | GI50 (SK-MEL-2): > 100 µM (inactive) | GI50 (MOLT-4): > 100 µM (inactive) | GI50 (IGROV-1): > 100 µM (inactive) | GI50 (ACHN): > 100 µM (inactive)

O=[N+]([O-])/C(C(Cl)=C(Cl)Cl)=C1\Nc2ccc([N+](=O)[O-])cc2N1
GI50 (HCT-116): 46.5 µM (inactive) | GI50 (SK-OV-3): > 100 µM (inactive) | GI50 (A498): > 100 µM (inactive) | GI50 (SK-MEL-5): > 100 µM (inactive) | GI50 (MDA-MB-435): > 100 µM (inactive) | GI50 (T47D): > 100 µM (inactive) | GI50 (HOP-92): 14.3 µM (inactive) | GI50 (PC-3): > 100 µM (inactive) | GI50 (NCI-H226): > 100 µM (inactive) | GI50 (M14): > 100 µM (inactive) | GI50 (Malme-3M): 63.5 µM (inactive) | GI50 (KM12): > 100 µM (inactive) | GI50 (K562): > 100 µM (inactive) | GI50 (NCI/ADR-RES): > 100 µM (inactive) | GI50 (MCF7): > 100 µM (inactive) | GI50 (SNB-19): > 100 µM (inactive) | GI50 (SN12C): 55.7 µM (inactive) | GI50 (A549): > 100 µM (inactive) | GI50 (UACC-257): > 100 µM (inactive) | GI50 (NCI-H460): > 100 µM (inactive) | GI50 (HOP-62): > 100 µM (inactive) | GI50 (RPMI-8226): 55 µM (inactive) | GI50 (EKVX): > 100 µM (inactive) | GI50 (UACC-62): > 100 µM (inactive) | GI50 (U-251): 60 µM (inactive) | GI50 (DU-145): > 100 µM (inactive) | GI50 (COLO 205): > 100 µM (inactive) | GI50 (SK-MEL-28): > 100 µM (inactive) | GI50 (OVCAR-3): > 100 µM (inactive) | GI50 (NCI-H522): 13.5 µM (inactive) | GI50 (SF-295): > 100 µM (inactive) | GI50 (CCRF-CEM): 27.4 µM (inactive) | GI50 (OVCAR-4): > 100 µM (inactive) | GI50 (UO-31): 14.1 µM (inactive) | GI50 (MDA-N): 75.3 µM (inactive) | GI50 (TK-10): > 100 µM (inactive) | GI50 (MDA-MB-231): 45.2 µM (inactive) | GI50 (OVCAR-5): > 100 µM (inactive) | GI50 (SNB-75): > 100 µM (inactive) | GI50 (786-0): > 100 µM (inactive) | GI50 (BT-549): 62.2 µM (inactive) | GI50 (HCT-15): > 100 µM | GI50 (NCI-H23): > 100 µM (inactive) | GI50 (SF-268): 61.8 µM (inactive) | GI50 (CAKI-1): 72.1 µM (inactive) | GI50 (SK-MEL-2): > 100 µM (inactive) | GI50 (MOLT-4): 45.1 µM (inactive) | GI50 (ACHN): > 100 µM (inactive)
